Structures are written as SMILES.

As usually defined, the IC50 is the concentration at which inhibition is half-maximal. Higher therefore signals lower potency.

Holding throughout (assay type): cell-based
The target of one experiment is T1, human TLR9 (Homo sapiens, UniProt Q9NR96).
T1 construct: host or cells: HEK-Blue cells
T1 sequence (Q9NR96 26-1032): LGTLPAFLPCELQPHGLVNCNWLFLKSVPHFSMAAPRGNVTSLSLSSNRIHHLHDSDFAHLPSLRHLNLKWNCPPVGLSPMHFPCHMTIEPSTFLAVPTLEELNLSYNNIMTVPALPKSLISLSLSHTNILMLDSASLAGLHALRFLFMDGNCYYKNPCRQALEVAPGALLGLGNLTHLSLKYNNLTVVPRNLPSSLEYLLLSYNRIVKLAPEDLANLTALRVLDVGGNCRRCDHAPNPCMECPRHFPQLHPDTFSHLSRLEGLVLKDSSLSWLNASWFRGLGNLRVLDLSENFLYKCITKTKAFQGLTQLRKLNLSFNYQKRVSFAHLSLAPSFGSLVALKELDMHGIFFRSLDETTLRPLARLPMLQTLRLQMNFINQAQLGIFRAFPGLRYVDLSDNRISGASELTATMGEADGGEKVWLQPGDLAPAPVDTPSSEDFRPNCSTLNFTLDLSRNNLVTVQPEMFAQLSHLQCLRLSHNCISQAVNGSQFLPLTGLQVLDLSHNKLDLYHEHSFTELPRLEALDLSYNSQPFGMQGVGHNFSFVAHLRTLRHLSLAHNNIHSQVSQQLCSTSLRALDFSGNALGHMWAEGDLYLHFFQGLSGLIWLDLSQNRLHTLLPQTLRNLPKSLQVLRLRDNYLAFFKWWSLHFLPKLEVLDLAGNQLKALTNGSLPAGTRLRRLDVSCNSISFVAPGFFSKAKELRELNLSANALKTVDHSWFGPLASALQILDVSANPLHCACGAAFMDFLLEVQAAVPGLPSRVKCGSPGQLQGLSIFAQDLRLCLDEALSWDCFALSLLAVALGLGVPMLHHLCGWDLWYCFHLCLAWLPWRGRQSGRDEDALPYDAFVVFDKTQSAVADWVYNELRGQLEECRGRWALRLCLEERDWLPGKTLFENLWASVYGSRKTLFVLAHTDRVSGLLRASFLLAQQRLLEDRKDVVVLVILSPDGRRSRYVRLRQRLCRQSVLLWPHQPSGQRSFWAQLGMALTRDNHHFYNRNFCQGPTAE
As to the kind of experiment: TLR9 inhibition reporter assay (HEK-Blue cells, SEAP reporter). Particulars: HEK-Blue cells overexpressing human TLR9; stimulated with ODN2006 5 nM; SEAP read after 22 hour; dose range 0.05 nM-50 μM. A digest of the protocol:
(§1)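 HEK-Blue cells with NF-κB/AP-1-driven SEAP pre-treated 30 min with compounds (0.05 nM-50 μM), then stimulated with gardiquimod 7.5 μM (TLR7), R848 15.9 μM (TLR8) or ODN2006 5 nM (TLR9). SEAP read after 22 h at 37° C; % inhibition relative to agonist+DMSO and reference-inhibitor wells.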

A further experiment has as its target T2, human TLR7 (Homo sapiens, UniProt Q9NYK1).
T2 construct: host or cells: HEK-Blue cells
T2 sequence (Q9NYK1 27-1049): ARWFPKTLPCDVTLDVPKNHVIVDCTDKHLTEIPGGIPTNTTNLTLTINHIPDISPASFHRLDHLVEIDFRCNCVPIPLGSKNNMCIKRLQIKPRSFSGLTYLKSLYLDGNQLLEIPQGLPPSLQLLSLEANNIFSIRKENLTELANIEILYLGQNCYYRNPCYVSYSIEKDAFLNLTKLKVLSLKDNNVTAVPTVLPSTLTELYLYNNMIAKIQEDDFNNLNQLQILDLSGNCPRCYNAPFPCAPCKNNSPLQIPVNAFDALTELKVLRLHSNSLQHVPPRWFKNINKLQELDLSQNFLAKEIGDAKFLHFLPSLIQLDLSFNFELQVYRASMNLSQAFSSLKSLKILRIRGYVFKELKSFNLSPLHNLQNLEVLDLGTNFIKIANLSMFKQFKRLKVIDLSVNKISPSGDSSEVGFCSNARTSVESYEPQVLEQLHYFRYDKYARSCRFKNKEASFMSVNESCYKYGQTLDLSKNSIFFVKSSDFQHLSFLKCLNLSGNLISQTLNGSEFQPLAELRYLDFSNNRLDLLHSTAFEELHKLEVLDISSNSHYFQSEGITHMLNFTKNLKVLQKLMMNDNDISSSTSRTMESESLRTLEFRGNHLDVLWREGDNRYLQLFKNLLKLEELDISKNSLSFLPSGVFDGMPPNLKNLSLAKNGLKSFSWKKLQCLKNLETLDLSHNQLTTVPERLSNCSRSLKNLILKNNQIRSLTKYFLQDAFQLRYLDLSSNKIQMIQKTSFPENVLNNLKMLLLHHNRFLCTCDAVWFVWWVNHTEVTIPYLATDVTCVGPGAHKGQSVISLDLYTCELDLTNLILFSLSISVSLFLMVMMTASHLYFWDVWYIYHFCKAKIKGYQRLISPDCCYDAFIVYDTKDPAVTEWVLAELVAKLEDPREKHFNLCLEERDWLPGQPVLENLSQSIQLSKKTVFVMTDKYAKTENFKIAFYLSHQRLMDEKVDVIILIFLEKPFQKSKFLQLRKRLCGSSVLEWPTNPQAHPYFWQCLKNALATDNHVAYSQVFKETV
Kind of experiment: TLR7 inhibition reporter assay (HEK-Blue cells, SEAP reporter). Particulars: HEK-Blue cells overexpressing human TLR7; stimulated with gardiquimod 7.5 μM; SEAP read after 22 hour; dose range 0.05 nM-50 μM. The method, boiled down: as §1
On the technique in general: Reporter assays use an easily measured gene product as a stand-in for the process of interest.

Another experiment has as its target T3, human TLR8 (Homo sapiens, UniProt Q9NR97).
T3 construct: host or cells: HEK-Blue cells
T3 sequence (Q9NR97 27-1041): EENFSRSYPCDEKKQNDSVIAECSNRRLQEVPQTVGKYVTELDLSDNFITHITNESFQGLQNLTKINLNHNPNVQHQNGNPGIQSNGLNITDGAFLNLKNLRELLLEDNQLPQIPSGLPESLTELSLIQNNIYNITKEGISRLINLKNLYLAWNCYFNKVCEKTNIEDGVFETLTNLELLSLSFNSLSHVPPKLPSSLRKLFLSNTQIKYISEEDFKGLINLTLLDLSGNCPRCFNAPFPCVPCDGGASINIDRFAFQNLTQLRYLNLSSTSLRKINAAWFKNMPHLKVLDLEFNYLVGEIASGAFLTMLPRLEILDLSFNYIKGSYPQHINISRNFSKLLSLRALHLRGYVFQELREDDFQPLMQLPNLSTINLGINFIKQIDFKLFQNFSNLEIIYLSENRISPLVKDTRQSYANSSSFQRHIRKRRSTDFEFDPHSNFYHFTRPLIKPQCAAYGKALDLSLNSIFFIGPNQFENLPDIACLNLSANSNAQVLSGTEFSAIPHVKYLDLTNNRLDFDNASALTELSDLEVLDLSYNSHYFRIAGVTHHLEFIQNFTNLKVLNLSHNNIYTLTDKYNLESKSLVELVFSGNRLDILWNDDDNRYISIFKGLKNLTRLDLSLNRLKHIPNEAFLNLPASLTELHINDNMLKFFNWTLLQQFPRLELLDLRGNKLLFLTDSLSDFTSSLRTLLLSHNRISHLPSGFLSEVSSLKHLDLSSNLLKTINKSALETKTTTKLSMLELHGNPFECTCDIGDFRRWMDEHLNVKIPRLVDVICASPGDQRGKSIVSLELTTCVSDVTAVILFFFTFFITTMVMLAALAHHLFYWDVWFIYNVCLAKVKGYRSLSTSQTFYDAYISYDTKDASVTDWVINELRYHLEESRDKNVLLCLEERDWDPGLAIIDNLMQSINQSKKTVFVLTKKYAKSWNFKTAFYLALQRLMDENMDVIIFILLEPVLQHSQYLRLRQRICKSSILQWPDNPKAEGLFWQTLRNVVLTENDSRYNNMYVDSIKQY
Kind of experiment: TLR8 inhibition reporter assay (HEK-Blue cells, SEAP reporter). Particulars: HEK-Blue cells overexpressing human TLR8; stimulated with R848 15.9 μM; SEAP read after 22 hour; dose range 0.05 nM-50 μM. A digest of the protocol:
as §1

On to `CC(C)N1CCN(c2ccc(-c3ccc4[nH]c(=O)c(-c5c(F)c(F)c(F)c(F)c5F)cc4c3)cc2)CC1` [Example 40, 3-(2,3,4,5,6-pentafluorophenyl)-6-{4-[4-(propan-2-yl)piperazin-1-yl]phenyl}-1,2-dihydroquinolin-2-one], for which the IC50 on human TLR9 is 399 nM; at human TLR7, at least 50000 nM; on human TLR8, at least 50000 nM.

Take `CCC(=O)Nc1ccc(-c2cc3cc(-c4ccc(N5CCN(C(C)C)CC5)cc4)ccc3[nH]c2=O)cc1` [Example 52, N-[4-(2-oxo-6-{4-[4-(propan-2-yl)piperazin-1-yl]phenyl}-1,2-dihydroquinolin-3-yl)phenyl]propanamide]: the IC50 against human TLR9 was 243 nM; against human TLR7, 15100 nM; against human TLR8, at least 50000 nM.

On to `CCc1c(-c2ccc(S(C)(=O)=O)cc2)c(=O)[nH]c2ccc(-c3ccc(N4CCN(C(C)C)CC4)cc3)cc12` [Example 84, 4-ethyl-3-(4-methanesulfonylphenyl)-6-{4-[4-(propan-2-yl)piperazin-1-yl]phenyl}-1,2-dihydroquinolin-2-one], for which the figures for the concentration for half-maximal inhibition (IC50) on human TLR9, on human TLR7 and against human TLR8 were 389 nM, 2320 nM and 672 nM, respectively.

With `CC(C)N1CCC(N2CCC(c3ccc4[nH]c(=O)c(-c5ccccc5)cc4c3)CC2)CC1` [Example 64, 3-phenyl-6-[1′-(propan-2-yl)-[1,4′-bipiperidine]-4-yl]-1,2-dihydroquinolin-2-one], the IC50 is 30 nM against human TLR9, 1480 nM on human TLR7 and at least 50000 nM on human TLR8.

For `CC(C)N1CCC(c2ccc(-c3ccc4[nH]c(=O)c(-c5ccc(NS(C)(=O)=O)cc5)cc4c3)cc2)CC1` [Example 83, N-[4-(2-oxo-6-{4-[1-(propan-2-yl)piperidin-4-yl]phenyl}-1,2-dihydroquinolin-3-yl)phenyl]methanesulfonamide], the IC50 at human TLR9 was 354 nM; against human TLR7, 369 nM; at human TLR8, at least 50000 nM.

As for `Cc1ccccc1-c1cc2cc(-c3ccc(N4CCN(C(C)C)CC4)cc3)ccc2[nH]c1=O` [Example 25, 3-(2-methylphenyl)-6-{4-[4-(propan-2-yl)piperazin-1-yl]phenyl}-1,2-dihydroquinolin-2-one], the figures for the IC50 on human TLR9, against human TLR7 and against human TLR8 were 226 nM, 6480 nM and 1390 nM, respectively.

In the case of `CC(C)N1CCN(c2ccc(-c3ccc4[nH]c(=O)c(-c5ccc(Cl)cc5Cl)cc4c3)cc2)CC1` [Example 38, 3-(2,4-dichlorophenyl)-6-{4-[4-(propan-2-yl)piperazin-1-yl]phenyl}-1,2-dihydroquinolin-2-one], the results for the 50% inhibitory concentration (IC50) against human TLR9, against human TLR7 and at human TLR8 were 376 nM, 8880 nM and at least 50000 nM, respectively.

Take `CC(C)N1CCN(c2ccc(-c3ccc4[nH]c(=O)c(-c5ccc(OC(F)F)cc5)cc4c3)cc2)CC1` [Example 36, 3-[4-(difluoromethoxy)phenyl]-6-{4-[4-(propan-2-yl)piperazin-1-yl]phenyl}-1,2-dihydroquinolin-2-one]: the IC50 against human TLR9 was 344 nM; against human TLR7, at least 50000 nM; on human TLR8, at least 50000 nM.

With `CC(C)N1CCN(c2ccc(-c3ccc4[nH]c(=O)c(-c5cn(C)c6ccccc56)cc4c3)cc2)CC1` [Example 48, 3-(1-methyl-1H-indol-3-yl)-6-(4-[4-(propan-2-yl)piperazin-1-yl]phenyl}-1,2-dihydroquinolin-2-one], the concentration for half-maximal inhibition (IC50) against human TLR9 is 1160 nM; against human TLR7 it was 2150 nM; against human TLR8, 6880 nM.

`CC(C)N1CCC(c2ccc(-c3ccc4c(c3)cc(-c3ccc(N(C)S(C)(=O)=O)cc3)c(=O)n4C)cc2)CC1` [Example 74, N-methyl-N-[4-(1-methyl-2-oxo-6-{4-[1-(propan-2-yl)piperidin-4-yl]phenyl}-1,2-dihydroquinolin-3-yl)phenyl]methanesulfonamide]: the results for the IC50 against human TLR9, at human TLR7 and against human TLR8 were 237 nM, 12000 nM and 29600 nM, respectively.

On to `CC(C)N1CCN(c2ccc(-c3ccc4[nH]c(=O)c(-c5ccc(S(C)(=O)=O)cc5)cc4c3)cc2)CC1` [Example 4, 3-(4-methanesulfonylphenyl)-6-{4-[4-(propan-2-yl)piperazin-1-yl]phenyl}-1,2-dihydroquinolin-2-one], for which the concentration for half-maximal inhibition (IC50) at human TLR9 was 206 nM; against human TLR7, 4690 nM; on human TLR8 it was at least 50000 nM.

Take `CC(C)N1CCN(c2ccc(-c3ccc4c(c3)cc(-c3ccccc3)c(=O)n4C)cc2)CC1` [Example 58, 1-methyl-3-phenyl-6-{4-[4-(propan-2-yl)piperazin-1-yl]phenyl}-1,2-dihydroquinolin-2-one]: the IC50 against human TLR9 was 538 nM; on human TLR7, 32600 nM; against human TLR8, 1390 nM.

Take `NS(=O)(=O)c1ccc(-c2cc3cc(-c4ccc(C5CCN(C6COC6)CC5)cc4)ccc3[nH]c2=O)cc1` [Example 92, 4-(6-{4-[1-(oxetan-3-yl)piperidin-4-yl]phenyl}-2-oxo-1,2-dihydroquinolin-3-yl)benzene-1-sulfonamide]: the IC50 against human TLR9 is 560 nM; against human TLR7 it was at least 50000 nM; on human TLR8, 11400 nM.

These data come from patent US20260183275A1, “SUBSTITUTED QUINOLONE COMPOUNDS USEFUL AS INHIBITORS OF TLR9” (Bristol-Myers Squibb Company, priority 2022, published 2026).
